The values that follow come from patent US20030219837A1, “Integrin ligand” (priority 2002, published 2003).

For one experiment, the system named is alpha6p. The experiment can be described thus: Abundance of alpha6p on DU145H cells with exogenous agents. Format: cell-based, human. The conditions noted are these: data not shown.
Experiment [1] has as its system alpha6p integrin protein levels. As to the kind of experiment: Calcium-induced terminal differentiation assay, Western blot with AA6A. Format: cell-based. The conditions noted are these: 291 nontransformed mouse keratinocytes, 24 h, dose-dependent (0.04 to 1.4 mM calcium). The method, then:
Cell Lines. All human cell lines were incubated at 37° C. in a humidified atmosphere of 95% air and 5% CO2. Cell lines DU145H, HaCaT, and PC3-N were grown in Iscove's modified Dulbecco's medium (Invitrogen Corporation, Carlsbad, Calif.; formerly Life Technologies, Inc.) plus 10% fetal bovine serum. Cell lines MCF-7, PC3-ATCC, LnCap, and H69 were grown in Dulbecco's modified Eagle's medium (Invitrogen Corporation, Carlsbad, Calif.; formerly Life Technologies, Inc.) plus 10% fetal bovine serum. SW480 cells were grown in super medium (Dulbecco's modified Eagle's medium plus 5% nonessential amino acids, 5% L-glutamine, 5% sodium pyruvate, 10% fetal bovine serum). Normal prostate cells, PrEC, were grown in PrEGM bullet kit medium (Clonetics, San Diego, Calif.). […]
Mouse 291 normal keratinocyte terminal differentiation can be induced by calcium. […] The presence of alpha6 and alpha6p integrins in normal 291 mouse keratinocytes was determined using whole cell lysates followed by Western blot analysis using anti-alpha6 integrin antibody, AA6A (FIG. 10A). […] The alpha6 and alpha6p integrin protein bands were quantitated using Scion Image (Cress (2000) BioTechniques 29:776-781), and the results were graphed (FIG. 10B). […]
On the technique in general: In western blotting, separated proteins are transferred to a membrane and probed.

In the next experiment the test system is DU145H cells. The experiment can be described thus: Surface half-life by biotinylation strategy. Format: cell-based, human. The method, then: Surface Biotinylation of Cell Lines. Previous published protocols (Isberg and Leong (1990) Cell 60:861-871; Einheber et al. (1993) J. Cell Biol. 123:1223-1236) were slightly modified. Briefly, cells were grown to confluency in 100-mm tissue culture dishes and washed three times with HEPES buffer (20 mM HEPES, 130 mM NaCl, 5 mM KCl, 0.8 mM MgCl2, 1.0 mM CaCl2, pH 7.45). The cells were then incubated with 2 ml of HEPES buffer supplemented with sulfosuccinimidyl hexanoate-conjugated biotin (500 μg/ml; Pierce), which is impermeable to cell membranes (Staros (1982) Biochemistry 21:3950-3), to label cell surface proteins for 30 min at 4° C. The cells were washed three times and lysed in cold radioimmune precipitation buffer plus protease inhibitors (phenylmethylsulfonyl fluoride, 2 mM; leupeptin and aprotinin, 1 μg/ml). The lysate was briefly sonicated on ice before centrifugation at 10,000 rpm for 10 min, and the supernatant was collected for immunoprecipitations.
To determine if the novel alpha6p variant was a degradation product of the alpha6 integrin that would be rapidly cleared from the surface, the surface half-life of both integrins was examined using a biotinylation strategy. […] After 24, 48, or 72 h, the integrins were immunoprecipitated using the GoH3 antibody and analyzed under non-reducing conditions (FIG. 8, panel A).

In the case of `CCCCCCCCCCCCCC(=O)O[C@@H]1[C@@H](C)[C@@]2(O)[C@@H](C=C(CO)C[C@]3(O)C(=O)C(C)=C[C@@H]23)[C@@H]2C(C)(C)[C@]12OC(C)=O` [12-O-tetradecanoylphorbol-13-acetate], the “influence on abundance of alpha6p” value in the experiment on alpha6p is recorded as “not influenced”. For `CNC(=O)[C@H](Cc1ccccc1)NC(=O)[C@H](CC(C)C)[C@H](CSc1cccs1)C(=O)NO` [BB94], the “influence on abundance of alpha6p” value in the experiment with alpha6p is on record as “not influenced”. With `[Ca+2].[Cl-].[Cl-]` [CaCl2], the “influence on abundance of alpha6p” value with alpha6p is given as “not influenced”.

As to `[Ca+2]` [Calcium, calcium], the “increase of alpha6p integrin protein levels” value in experiment [1] came out at 3 fold. Regarding `CC(=O)N[C@@H](CC(C)C)C(=O)N[C@@H](CC(C)C)C(=O)N[C@H](C=O)CCCNC(=N)N` [leupeptin], in the experiment with alpha6p, the “influence on abundance of alpha6p” value is listed as “not influenced”. Same read-out and setting: the entry for aprotinin is “not influenced”; for ecotin: exogenous protease inhibitor it is “not influenced”; for kallikrein it is “not influenced”.

B1: alpha6p: 70-kDa, naturally occurring truncated form of the alpha6 integrin (protein)
chain: VNSLPEVLPILNSNEAKTVQTDVHFLKEGCGDDNVCNSNLKLEYKFGTREGNQDKFSYLPIQKGIPELVLKDQKDIALEITVTNSPSDPRNPRKDGDDAHEAKLIATFPDTLTYSAYRELRAFPEKQLSCVANQNGSQADCELGNPFKRNSSVTFYLILSTTEVTFDTTDLDINLKLETTSNQDNLAPITAKAKVVIELLLSVSGVAKPSQVYFGGTVVGEQAMKSEDEVGSLIEYEFRVINLGKPLKNLGTATLNIQWPKEISNGKWLLYLMKVESKGLEQIVCEPHNEINYLKLKESHNSRKKRELPEKQIDDSRKFSLFPERKYQTLNCSVNVRCVNIRCPLRGLDSKASLVLRSRLWNSTFLEEYSKLNYLDILLRASIDVTAAAQNIKLPHAGTQVRVTVFPSKTVAQYSGVAWWIILLAVLAGILMLALLVFLLWKCGFFKRSRYDDSIPRYHAVRIRKEEREIKDEKHMDNLEKKQWITKWNENESYS
Take B1: the “surface half-life relative to full-length alpha6 integrin” value in the experiment with DU145H cells (surface of DU145H cells) was around 3 times. In the experiment with DU145H cells (surface of DU145H cells, 24, 48, 72 h after biotinylation), the “half-life on the cell surface” value is listed as around 72 h.
